# Key:
# Experiment in all cases: ≥ marks a high value that may be exact or a test limit, other limits are often not marked, values filed in µg/mL are converted to µM
# [1] = tested on: Micrococcus luteus ATCC 4698
# [2] = tested on: Staphylococcus aureus ATCC 6538
# [3] = tested on: Staphylococcus epidermidis ATCC 12228
# [4] = tested on: Escherichia coli DH5alpha
# [5] = tested on: Candida albicans NCPF 1467
# [6] = tested on: Staphylococcus aureus NCTC 10788
# [7] = tested on: Escherichia coli NCTC 10418
# [8] = tested on: Candida albicans NCYC 1467
# Escherichia coli JW0013 = tested on: Escherichia coli JW0013
# [9] = tested on: Salmonella enterica subsp. enterica serovar Typhimurium ATCC 14028
# [10] = tested on: Klebsiella pneumoniae ATCC 10031
# Micrococcus luteus A270 = tested on: Micrococcus luteus A270
# Escherichia coli = tested on: Escherichia coli
# Listeria innocua = tested on: Listeria innocua
# [11] = tested on: Pseudomonas corrugata DSM 7228
# [12] = tested on: Clavibacter michiganensis subsp. michiganensis DSM 46294
# [13] = tested on: Xanthomonas vesicatoria DSM 50861
# [14] = tested on: Pseudomonas syringae pv. tomato DC3000
# [15] = tested on: Pectobacterium carotovorum subsp. carotovorum DSM 30168
# [16] = tested on: Pseudomonas syringae pv. syringae DSM 10604
structure (smiles),measurement,setting,value
CC(C)C[C@H](NC(=O)[C@H](CC(C)C)NC(=O)[C@H](CCCCN)NC(=O)[C@H](CO)NC(=O)[C@@H](NC(=O)[C@H](C)NC(=O)[C@H](CCCCN)NC(=O)[C@H](Cc1ccccc1)NC(=O)[C@H](CC(C)C)NC(=O)[C@H](C)NC(=O)CNC(=O)[C@H](CC(C)C)NC(=O)[C@@H](N)Cc1ccccc1)C(C)C)C(=O)O [FLGALFKAVSKLL],MIC,[1],4.98 µM
same,MIC,[2],8.53 µM
same,MIC,[3],15.6 µM
same,MIC,[4],25.6 µM
CC[C@H](C)[C@H](NC(=O)[C@H](C)NC(=O)[C@H](CO)NC(=O)[C@@H](NC(=O)[C@H](CC(C)C)NC(=O)CNC(=O)[C@H](C)NC(=O)[C@@H](NC(=O)[C@@H](NC(=O)[C@H](CO)NC(=O)[C@@H]1CCCN1C(=O)[C@@H](NC(=O)[C@H](CC(C)C)NC(=O)[C@H](CO)NC(=O)[C@H](Cc1ccccc1)NC(=O)[C@H](CC(C)C)NC(=O)[C@@H](N)Cc1ccccc1)[C@@H](C)CC)C(C)C)[C@@H](C)CC)C(C)C)C(=O)N[C@@H](CCCN=C(N)N)C(=O)N[C@@H](CC(N)=O)C(N)=O [FLFSLIPSVIAGLVSAIRN],MIC,[5],15.9 µM
same,MIC,[6],7.93 µM
same,MIC,[7],≥ 254 µM
CC[C@H](C)[C@H](NC(=O)[C@H](CC(=O)O)NC(=O)[C@H](CCCCN)NC(=O)[C@H](Cc1c[nH]c2ccccc12)NC(=O)[C@H](CC(C)C)NC(=O)[C@H](C)N)C(=O)N[C@@H](CC(C)C)C(=O)N[C@@H](CCCCN)C(=O)N[C@@H](CC(N)=O)C(=O)N[C@@H](C)C(=O)NCC(=O)N[C@@H](CCCCN)C(=O)N[C@@H](C)C(=O)N[C@@H](C)C(=O)N[C@@H](CC(C)C)C(=O)N[C@@H](CC(N)=O)C(=O)N[C@@H](CCC(=O)O)C(=O)N[C@H](C(=O)N[C@@H](CC(N)=O)C(=O)N[C@@H](CCC(N)=O)C(=O)N[C@H](C(=O)N[C@H](C(=O)N[C@@H](CCC(N)=O)C(N)=O)C(C)C)[C@@H](C)CC)[C@@H](C)CC [ALWKDILKNAGKAALNEINQIVQ],MIC,[8],≥ 64 µM
same,MIC,[6],≥ 256 µM
same,MIC,[7],≥ 32 µM
CC[C@H](C)[C@H](NC(=O)CNC(=O)[C@H](CO)NC(=O)[C@H](CC(C)C)NC(=O)[C@H](CC(C)C)NC(=O)CN)C(=O)N[C@@H](CC(C)C)C(=O)NCC(=O)N[C@@H](C)C(=O)NCC(=O)N[C@@H](CCCCN)C(=O)N[C@@H](CCCCN)C(=O)N[C@H](C(=O)N[C@H](C(=O)O)C(C)C)[C@@H](C)CC [GLLSGILGAGKKIV],MIC,[8],≥ 32 µM
same,MIC,[6],≥ 32 µM
same,MIC,[7],≥ 64 µM
NCCCC[C@@H]1NC(=O)[C@H](Cc2c[nH]c3ccccc23)NC(=O)CNC(=O)CNC(=O)[C@@H](N)CSSC[C@@H](C(=O)O)NC(=O)[C@H](CCCN=C(N)N)NC(=O)[C@H](CCCCN)NC(=O)[C@H](CCCN=C(N)N)NC1=O [CGGWKRKRC],MIC,[1],0.8 µM
CC[C@H](C)[C@H](NC(=O)[C@H](CCCN=C(N)N)NC(=O)[C@H](CCCN=C(N)N)NC(=O)[C@@H]1CCCN1C(=O)[C@@H]1CCCN1C(=O)[C@H](CCCN=C(N)N)NC(=O)[C@@H]1CCCN1C(=O)[C@H](CCCN=C(N)N)NC(=O)[C@@H]1CCCN1C(=O)[C@H](CC(C)C)NC(=O)[C@H](Cc1ccc(O)cc1)NC(=O)[C@H](CCCCN)NC(=O)[C@@H]1CCCN1C(=O)[C@H](CCCCN)NC(=O)[C@H](CC(=O)O)NC(=O)[C@@H](N)C(C)C)C(=O)N[C@@H](Cc1ccc(O)cc1)C(=O)N[C@@H](CC(N)=O)C(=O)N[C@@H](CCCN=C(N)N)C(N)=O [VDKPKYLPRPRPPRRIYNR],MIC,Escherichia coli JW0013,1.36 µM
CC[C@H](C)[C@@H]1NC(=O)[C@H](CCCCN)NC(=O)[C@@H](NC(=O)[C@@H](NC(=O)[C@@H](NC(=O)[C@@H](NC(=O)[C@@H]2CCCN2C(=O)[C@H](CC(C)C)NC(=O)[C@H](Cc2ccccc2)NC(=O)[C@H](CC(N)=O)NC(=O)[C@H](C)NC(=O)[C@H](C)NC(=O)[C@H](CC(C)C)NC(=O)CNC(=O)[C@H](C)NC(=O)[C@H](CC(C)C)NC(=O)[C@@H](N)CC(C)C)[C@@H](C)O)[C@@H](C)CC)[C@@H](C)CC)CSSC[C@@H](C(=O)O)NC(=O)[C@H](CCCCN)NC(=O)[C@H](Cc2ccc(O)cc2)NC(=O)[C@H](CO)NC1=O [LLAGLAANFLPTIICKISYKC],MIC,[9],> 44.4 µM
same,MIC,[10],≥ 44.4 µM
same,MIC,[4],≥ 44.4 µM
CC[C@H](C)[C@H](NC(=O)CNC(=O)[C@@H](NC(=O)[C@H](C)NC(=O)[C@@H](NC(=O)[C@H](Cc1cnc[nH]1)NC(=O)[C@@H]1CCCN1C(=O)[C@@H](NC(=O)[C@H](CCSC)NC(=O)[C@H](CO)NC(=O)[C@H](Cc1ccccc1)NC(=O)[C@@H](N)Cc1ccccc1)[C@@H](C)CC)[C@@H](C)CC)[C@@H](C)O)C(=O)N[C@@H](C)C(=O)N[C@@H](CO)C(=O)N[C@@H](CC(C)C)C(=O)N[C@H](C(=O)N[C@@H](CCCCN)C(=O)N[C@@H](CC(N)=O)C(=O)N[C@@H](CC(C)C)C(N)=O)C(C)C [FFSMIPHIATGIASLVKNL],MIC,[5],31.1 µM
same,MIC,[6],15.5 µM
same,MIC,[7],≥ 249 µM
CSCC[C@H](NC(=O)CN)C(=O)N[C@@H](CCCN=C(N)N)C(=O)N1CCC[C@H]1C(=O)N1CCC[C@H]1C(=O)N[C@@H](Cc1c[nH]c2ccccc12)C(=O)N[C@@H](Cc1ccccc1)C(N)=O [GMRPPWF],MIC,[5],≥ 144 µM
same,MIC,[6],≥ 288 µM
same,MIC,[7],≥ 575 µM
CC(C)C[C@H](NC(=O)[C@H](CC(C)C)NC(=O)[C@H](CO)NC(=O)[C@H](Cc1cnc[nH]1)NC(=O)[C@H](CO)NC(=O)[C@H](CC(C)C)NC(=O)[C@H](CC(C)C)NC(=O)[C@H](CCCCN)NC(=O)[C@H](Cc1ccccc1)NC(=O)[C@H](CC(N)=O)NC(=O)[C@@H](N)C(C)C)C(=O)O [VNFKLLSHSLL],MIC,Micrococcus luteus A270,24 µM
same,MIC,Escherichia coli,98 µM
same,MIC,Listeria innocua,24 µM
CC[C@H](C)[C@H](NC(=O)CNC(=O)CNC(=O)[C@H](C)NC(=O)[C@@H](NC(=O)[C@H](Cc1cnc[nH]1)NC(=O)[C@@H]1CCCN1C(=O)[C@@H](NC(=O)[C@H](CCSC)NC(=O)[C@H](CO)NC(=O)[C@H](CC(C)C)NC(=O)[C@@H](N)Cc1ccccc1)[C@@H](C)CC)[C@@H](C)CC)C(=O)N[C@@H](C)C(=O)N[C@@H](CO)C(=O)N[C@@H](CC(C)C)C(=O)N[C@H](C(=O)N[C@@H](CCCCN)C(=O)N[C@@H](CC(N)=O)C(=O)N[C@@H](CC(C)C)C(N)=O)C(C)C [FLSMIPHIAGGIASLVKNL],MIC,[5],≥ 32.3 µM
same,MIC,[6],16.2 µM
same,MIC,[7],≥ 258 µM
CC(C)C[C@H](NC(=O)[C@H](C)NC(=O)[C@H](CC(C)C)NC(=O)[C@H](CCCN=C(N)N)NC(=O)[C@H](CCCN=C(N)N)NC(=O)[C@@H](N)CCCCN)C(=O)N[C@@H](Cc1ccccc1)C(=O)N[C@@H](CCCN=C(N)N)C(=O)N[C@@H](CC(C)C)C(=O)N[C@@H](Cc1ccccc1)C(=O)N[C@@H](CCCN=C(N)N)C(=O)N[C@@H](CC(C)C)C(=O)N[C@@H](C)C(=O)N[C@@H](CC(C)C)C(=O)N[C@@H](CCCCN)C(=O)N[C@@H](CC(C)C)C(=O)N[C@H](C(=O)N[C@@H](CC(C)C)C(=O)N[C@@H](CCCCN)C(=O)N[C@@H](CCCCN)C(N)=O)C(C)C [KRRLALFRLFRLALKLVLKK],MIC,[11],4.03 µM
same,MIC,[12],1.01 µM
same,MIC,[13],1.01 µM
same,MIC,[14],1.01 µM
same,MIC,[15],4.03 µM
same,MIC,[16],4.03 µM
CC[C@H](C)[C@H](NC(=O)[C@H](CCCN=C(N)N)NC(=O)[C@H](CCCN=C(N)N)NC(=O)[C@@H]1CCCN1C(=O)[C@@H]1CCCN1C(=O)[C@H](CCCN=C(N)N)NC(=O)[C@@H]1CCCN1C(=O)[C@H](CCCN=C(N)N)NC(=O)[C@@H]1CCCN1C(=O)[C@H](CC(C)C)NC(=O)[C@H](Cc1ccc(O)cc1)NC(=O)[C@H](CC(=O)O)NC(=O)[C@@H]1CCCN1C(=O)[C@H](CCCCN)NC(=O)[C@H](CC(=O)O)NC(=O)[C@@H](N)C(C)C)C(=O)N[C@@H](Cc1ccc(O)cc1)C(=O)N[C@@H](CC(N)=O)C(=O)N[C@@H](CCCN=C(N)N)C(N)=O [VDKPDYLPRPRPPRRIYNR],MIC,Escherichia coli JW0013,1.37 µM
